{"source": "patent US20240252463A1", "about": "“METHODS OF TREATING FIBROTIC PATHOLOGIES” (Mayo Foundation for Medical Education and Research, priority 2018, published 2024)", "key": {"[1]": {"system": "IMR-90 cells and IPF Patient-Derived Lung fibroblasts", "experiment": "Proliferation and apoptosis-factor expression of lung fibroblasts", "format": "cell-based, human", "method": "IPF fibroblast and Normal lung fibroblast co-culture proliferation. Cell are pre-labelled with fluorescent dyes (red and green) and then co-cultured at a Ratio of 1:1 in 96 well plates. Cell counts are determined every 24 hours and plotted as a ratio of IPF/HLF cells. In the control wells the IPF cells outgrow and take over the well. N=2.\nProliferation of lung fibroblasts (IMR-90 cells and IPF Patient-Derived Lung fibroblasts) measured for 4 days in the presence of GPCR agonists ET-1 (100 nM) and LPA (10 μM) (32A, 32B) or growth factors TGFβ (2 ng/mL) and CTGF (100 ng/mL) (32C, 32D)+/−10M DHX. Cells were fixed and counted with DAPI at the end of each day. N=3 technical triplicates. RNA Expression of pro-apoptotic factor BIM (32E, 32F) and anti-apoptotic factor BCL2 (32G, 32H) was assessed following 24 treatment with DHX (10 μM). N=4."}, "human dermal fibroblasts": {"system": "human dermal fibroblasts", "experiment": "Profibrotic gene expression in human dermal fibroblasts +/- TGFβ", "format": "cell-based", "conditions": "24 hours +/− 2 ng/mL TGFβ", "method": "Human dermal fibroblasts treated for 24 hours+/−2 ng/mL TGFβ and D1 agonists: DHX and A68930 prior to RNA isolation. N=2. For all other in vitro experiments, cells were treated as indicated prior to RNA isolation using RNeasy Plus Mini Kit (Qiagen) according to manufacturer's instructions. Isolated RNA (250 ng) was then used to synthesize cDNA using SuperScript VILO (Invitrogen). Quantitative PCR was performed using FastStart Essential DNA Green Master (Roche) and analyzed using a LightCycler 96 (Roche). Data are expressed as a fold change by ΔΔCt relative to GAPDH. For in vivo experiments, tissue was immediately frozen, and stored at −80° C. RNA isolation, cDNA synthesis, and qPCR analysis were performed as above."}, "cAMP": {"system": "cAMP", "experiment": "cAMP Assay (cAMP-Glo) in lung fibroblasts", "format": "cell-based, human", "conditions": "IPF patient-derived fibroblasts, 20 minutes, DHX 10 μM", "method": "cAMP Assay: IPF patient derived fibroblasts were plated in EMEM containing 10% FBS overnight. […] 20 minutes prior to cell lysis media was removed and cells were treated with “induction buffer” containing nonselective phosphodiesterase inhibitors and the indicated concentration of compound(s). Luminescence was measured on a Flexstation 3 (Molecular Devices) plate reader."}, "[2]": {"system": "hepatic stellate cells (HSCs)", "experiment": "Western blot of αSMA and Fibronectin in TGFβ-stimulated hepatic stellate cells", "format": "cell-based, human", "conditions": "TGFβ 48 hours +/- DHX 10 μM", "method": "FIGS. 10A-10D DHX reverses hepatic stellate cell activation and in vivo hepatic fibrosis. 10a. DRD1 is preferentially expressed in cultured human hepatic stellate cells (HSCs): ACTA2, PDGFRA positive, relative to cultured human hepatocytes (Heps): ALB positive. N=1. 10b. DHX inhibits TGFβ-mediated hepatic stellate cell activation in vitro. HSCs were stimulated with TGFβ for 48 hours+/−DHX (10 μM) prior to total protein isolation and western blot analysis of αSMA and Fibronectin. N=3 (***p<0.001, **p<0.01, *p<0.05 vs. Control+TGFβ). 10c. DHX reverses Bile duct ligation (BDL) mediated fibrosis in vivo measured by trichrome staining, and 10d. hydroxyproline. Sham Control N=5, BDL Control N=7, and BDL DHX N=8 (**p<0.01 vs. BDL Control).\nWestern Blotting: Cells were plated in EMEM containing 10% FBS overnight. Media was exchanged with EMEM containing 0.1% FBS for 24 hours. Prior to protein isolation cells were treated with the indicated concentration of compounds for the indicated time. Total protein was isolated using RIPA buffer (pH 8.0) containing Pierce Phosphatase Inhibitor (Thermo) and Halt Protease Inhibitor Cocktail (Thermo). Lysate total protein concentration was determined using Pierce BCA Protein Assay Kit (Thermo) and samples were run on a 10% polyacrylamide gel. […] Plates were imaged via a Li-Cor OdysseyXL system with quantification performed via densitometry."}, "YAP/TAZ": {"system": "YAP/TAZ", "experiment": "YAP/TAZ localization in pulmonary epithelial (NHAEpC) and endothelial (NHMVEC) cells", "format": "cell-based, human", "conditions": "FIG. 2b", "method": "(§1) Scale bar represents 100 μm. […] Scale bar represents 100 μm.\nImmunofluorescenceMicroscopy: Cells were plated into 96 well plates (Corning 3603) in their specific growth media and allowed to attach (8 hours). Media was then exchanged for the indicated conditions for each experiment. Cells were fixed in 3.7% formalin (Sigma-Aldrich), permeabilized in 0.25% Triton X-100 (Sigma-Aldrich) and then blocked with 1% BSA for 1 h. Cells or tissue sections were incubated overnight with mouse monoclonal antibody against αSMA (Sigma-Aldrich F3777), and/or a rabbit monoclonal antibody against YAP/TAZ (Cell Signaling D24E4) diluted 1:200 in PBS with 1% BSA. Cells were then washed and exposed to flourescence-conjugated secondary antibodies (Invitrogen) diluted 1:1000 and DAPI (Thermo Fisher Scientific). Images were taken with a Cytation5 (BioTek) microscope. For scoring αSMA positive cells (FIG. 3b), an observer blinded to the treatment conditions counted αSMA-positive cells using a visual threshold for bright fibrous staining; a minimum of 200 cells was counted for each condition. YAP/TAZ localization was quantified (FIG. 2, 6, 8) using Gen5 (Biotek) software. […] Quantification of double positive (YAP/TAZ and αSMA) cells from lung tissue sections (FIG. 4d) was performed similarly; however separate thresholds were established for both YAP/TAZ and αSMA. A minimum of 4000 cells was quantified for each mouse."}, "pYAP (Ser 127)": {"system": "pYAP (Ser 127)", "experiment": "Western blotting of YAP serine 127 phosphorylation, IMR-90 cells", "format": "cell-based, human", "conditions": "IMR-90, DHX 10 μM, 2 hours", "description": "as §1"}}}
{"smiles": "Oc1cc2c(cc1O)[C@H]1c3ccccc3CN[C@@H]1CC2", "note": "(racemic) [Dihydrexidine, dihydrexidine]", "values": [{"measurement": "RNA expression of pro-apoptotic BIM and anti-apoptotic BCL2", "setting": "[1]; 24 treatment with DHX (10 μM)", "value": "primes lung fibroblasts for apoptosis"}, {"measurement": "proliferation of lung fibroblasts", "setting": "[1]; 4 days, with ET-1, LPA, TGFβ or CTGF +/−10M DHX", "value": "blocks proliferation"}, {"measurement": "profibrotic gene expression in human dermal fibroblasts", "setting": "human dermal fibroblasts", "value": "blocks profibrotic gene expression"}, {"measurement": "cAMP", "setting": "cAMP", "value": "elevated cAMP"}, {"measurement": "TGFβ-mediated HSC expression of SMA and FN protein", "setting": "[2]", "value": "significant reversal of both"}, {"measurement": "YAP/TAZ localization in pulmonary epithelial and endothelial cells", "setting": "YAP/TAZ", "value": "had no effect on YAP/TAZ localization"}, {"measurement": "YAP serine 127 phosphorylation", "setting": "pYAP (Ser 127)", "value": "promoted YAP serine 127 phosphorylation"}]}
